# Measurements from US20260286302A1, “METHODS FOR PRODUCING A SUPER CENTRAL MEMORY CD8 T CELL SUBTYPE BY POLY(ADP-RIBOSE) POLYMERASE (PARP) INHIBITION AND USES THEREOF” (Georgetown University, priority 2023, published 2026).
# Experiments:
# [1] = system: B16F10 tumors; test: B16F10 tumor model: tumor growth and survival; format: in vivo, mouse
# Experimental: (§1) C57BL/6J mice were injected with 7×10^4 TC-1 cells per mouse or 1×10^5B16F10 cells per mouse in the right flank. Treatment in respective groups was started when tumors reached an average size of approximately 0.075 cm^3. […] Mice were treated daily with IP injection at a dose of 50 mg kg-1.
# (§2) For vaccination, TC-1-specific E7 peptide (a nine amino acid peptide, […] (SEQ ID NO: 1); 100 μg per mouse per 100 μl; Celtak Bioscience) or B16-specific gp10025-33 nonamer peptide ([…] (SEQ ID NO: 2); 100 μg per mouse per 100 μl; AnaSpec) were used. Both the vaccines were mixed with a small 13-mer nonnatural pan-HLA DR-binding epitope (PADRE (SEQ ID NO: 3); aK-Cha-[…]a (SEQ ID NO: 4), where ‘a’ is d-alanine, and ‘Cha’ is 1-cyclohexylalanine, T helper epitope, 20 μg per mouse; Celtak Bioscience) and QuilA (adjuvant, 10 μg per mouse; Brenntag). For survival and therapy experiments, mice were vaccinated three times, starting at an average tumor size of 0.07 cm^3, while for immune response experiments mice were vaccinated twice with a one-week interval between vaccinations. Tumors were measured every 3-4 days using a digital vernier caliper, and the tumor volume was calculated using the formula: V=L×W2/2000, where V is tumor volume, L is the length of the tumor (longer diameter) and W is the width of the tumor (shorter diameter). Mice were monitored for tumor growth and survival. Mice were euthanized when the tumor volume reached 1.5 cm^3.
# [2] = system: CD8+ T cells in TME of B16F10 tumors; test: Immune profiling of the TME, B16F10 tumor-bearing mice; format: in vivo, mouse
# Text: (§3) Two-to-three days after the second vaccination, mice in the various groups were euthanized and tumors were collected.
# (§4) A total of 0.1-0.2×10^6 cells per sample were stained for Live/Dead staining followed by fixation and permeabilization. For IFNγ and granzyme B (Gzm B) staining, BD Cytofix/Cytoperm (catalog no. 51-2090KZ) and BD Perm/Wash (catalog no. 51-2091KZ) buffer set were used according to the manufacturer's instructions (BD Pharmingen). CD8^+ T cells from tumor samples were stained similarly. Data acquisition was performed on a BD LSR II flow cytometer using the software FACS Diva v.9.0. Results were analyzed using FlowJo software (TreeStar). MitoFM, a green-fluorescent mitochondrial stain, which localizes to mitochondria, was used as described previously (Sukumar et al., Cell Metab 23 (1): 63-76, 2016).
# [3] = system: TC-1 tumors; test: TC-1 tumor model: tumor growth and survival; format: in vivo, mouse; details: for mice survived: TC-1 tumor model, day 22
# Experimental: as §1, §2
# [4] = system: CD8+ T cells in TME of TC-1 tumors; test: Immune profiling of the TME, TC-1 tumor-bearing mice; format: in vivo, mouse
# Text: as §3, §4
# [5] = system: pMel-1 CD8 T cells; test: RNA-sequencing of gp100-activated pMel-1 CD8 T cells; format: cell-based, mouse
# Text: Ribo-Zero Plus Kit from Illumina® was used for stranded Total RNA Prep Ligation. This protocol involves the removal of ribosomal RNA (rRNA) using biotinylated, target-specific oligos combined with Ribo-Zero rRNA removal beads. RNA was fragmented into small pieces and the cleaved RNA fragments were copied into first strand cDNA using reverse transcriptase and random primers, followed by second strand cDNA synthesis using DNA Polymerase I and RNase H. The resulting double-strand cDNA were used as the input to a standard Illumina library prep with end-repair, adapter ligation and PCR amplification being performed to give a sequencing ready library. The final purified product was then quantitated by qPCR before cluster generation and sequencing on NovaSeq 6000 instrument.
# [6] = system: TC-1; test: Tumor growth in immune deficient nude mice (TC-1); format: in vivo, mouse; details: TC-1 in immune deficient nude mice
# Experimental: The effect of PARPi on direct CD8 T cell-driven anti-tumor immune response remains poorly understood. Therefore, to dissect this effect, the anti-tumor immune effect of PARPi was tested in vivo in tumor models that require T cell priming, which helps delineate the direct effect of the drug on CD8 T cells. […] While 18% and 10% of mice survived in the vaccine-treated and PARPi-treated groups, respectively, in the TC-1 tumor model at day 22, 90% survived when PARPi was added to the vaccine. Similarly, in the B16F10 tumor model, 10% of the mice treated with vaccine alone were alive at day 22, compared to 40% when PARPi was added.
# [7] = system: CD8 T cells of patients with recurrent ovarian cancer; test: PBMC of ovarian cancer patients pre and post treatment; format: in vivo, human
# Experimental: Peripheral blood mononuclear cells (PBMCs) were isolated from whole blood collected in cell preparation tubes (CPT) with sodium citrate and viably frozen until analysis. After thawing, PBMCs were washed with flow buffer (5% BSA, 2 mM EDTA in PBS), incubated with Fc receptor blocking reagent (Miltenyi Biotec) and stained with monoclonal antibodies for 20-30 min at 4° C. For staining for Ki-67 and Granzyme B, cells were fixed and permeabilized using a Fix/Perm buffer (eBiosciences) according to the manufacturer's instructions. Dead cells were excluded from the analysis by using the viability dye, LIVE/DEAD Fixable (Life Technologies). All assays were performed using multiparametric flow cytometry (MACSQuant; Miltenyi Biotec). Data were analyzed using FlowJo software v.10.6.1 (FlowJo, LLC). Flow cytometric data were quantified either as the median fluorescence intensity or as a percentage of cells, as indicated.
smiles,measurement,setting,value
O=C(c1cc(Cc2n[nH]c(=O)c3ccccc23)ccc1F)N1CCN(C(=O)C2CC2)CC1 [olaparib],"tumor growth and survival, enhancement of anti-tumor immune response of the vaccine","[1]; B16F10, PARPi 50 mg/kg IP daily in combination with gp100 vaccine",significantly retarding tumor growth and prolonging survival
same,mice alive,"[1]; B16F10 tumor model, day 22, PARPi added to the vaccine (gp100)",40%
same,single agent effect,"[1]; B16 model, PARPi alone",no single agent effect
same,number of total and antigen-specific CD8+ T cells in TME,"[2]; B16, vaccinated in the presence of PARPi vs either treatment alone",significant increase
same,IFNγ+ and granzyme B+ total and antigen-specific CD8+ T cells,"[2]; B16F10, PARPi given with the vaccine",enhanced functionality
same,vaccine-induced central memory CD8 T cells in the TME,"[2]; B16F10, PARPi with vaccine",increased
same,proliferation of CD8 T cells as determined by Ki67 expression,[2]; B16F10 TME,significant decrease
same,"tumor growth and survival, enhancement of anti-tumor immune response of the vaccine","[3]; TC-1, PARPi 50 mg/kg IP daily in combination with HPV E7 vaccine",significantly retarding tumor growth and prolonging survival
same,anti-tumor effect after depletion of CD8 T cells,"[3]; TC-1, PARPi with vaccine, CD8 T cell depleting antibodies",loss of the anti-tumor effect
same,mice survived,[3]; PARPi added to the vaccine (HPV E7),90%
same,mice survived,[3]; treatment alone,10%
same,number of total and antigen-specific CD8+ T cells in TME,"[4]; TC1, vaccinated in the presence of PARPi vs either treatment alone",significant increase
same,IFNγ+ and granzyme B+ total and antigen-specific CD8+ T cells,"[4]; TC-1, PARPi given with the vaccine",enhanced functionality
same,CD44hiCD62Lhi CD8 T cells within the TCM compartment in the TME,"[4]; TC-1, PARPi in combination with vaccine",appearance of a distinct population
same,vaccine-induced total and antigen-specific effector (TEM) and central memory (TCM) CD8 T cells in the TME,"[4]; TC-1, PARPi with vaccine",increased
same,proliferation of CD8 T cells as determined by Ki67 expression,[4]; TC-1 TME,significant decrease
same,"genes related to OXPHOS and FAO (Acot1, Cpt1α)","[5]; PARPi-treated vs gp100, 48 h",significantly upregulated
same,"genes related to the glycolysis pathway (Eno1, Aldoc, Pgk1, Gapdh)","[5]; PARPi-treated vs gp100, 48 h",significantly downregulated
same,"expression of genes related to memory (Sell, Bcl2, Ccr7, Slpr1, Cd44, Tcf7, Klf2, Eomes)","[5]; after PARPi treatment, 48 h",significant increase
same,tumor growth,[6],did not affect tumor growth
same,frequency of Ki67+ CD8 T cells,"[7]; olaparib plus anti-PDL1 (Durvalumab), pre vs post treatment",decrease
same,CD62L expression in TCM CD8 T cells,"[7]; olaparib plus anti-PDL1 (Durvalumab), some patients",increased
same,patients with an increase in TCM CD8 T cells,"[7]; ovarian cancer patients treated with olaparib plus anti-PDL1 (Durvalumab), pre vs post treatment",63%
